The values that follow come from patent US4331597A, “Penicillin compounds” (Meiji Seika Kaisha, Ltd., priority 1979, dated 1982).

The MIC is the lowest concentration found to suppress growth. A higher MIC goes with a need for much substance.

Each structure is given as a SMILES string. Values after ≈ are worked out from the molar mass of the structure shown. Counter-ions that a name gives are not always drawn.

What all share (experiment): Minimum inhibitory concentration test, agar dilution method (plate)
Holding throughout (type): cell-based

For test [1], the system named is Escherichia coli 255. On the procedure:
(§1) Antimicrobial test (i.e., minimum inhibitory concentration test) on compounds obtained according to this invention was conducted according to the Japan chemotherapy method, using Apalcillin (PC-904) for comparison purposes.
(§2) Minimum Inhibitory Concentration(γ/ml)
(§3) in Agar Dilution Method (Plate)

In test [2] the test system is Pseudomonas aeruginosa M-0002. Particulars: M0002. On the procedure: as §1, §2, §3
Test [3] deals with Pseudomonas cepacia M-0513. The note with it: Burkholderia cepacia, M0513. Here is the method: as §1, §2, §3
For test [4], the system named is Serratia species GN629 (CSase). Here is the method: as §1, §2, §3
Test [5] relates to Citrobacter freundii GN346 (CSase). On the procedure:
as §1, §2, §3

Test [6] has as its system Staphylococcus aureus 209PJC-1. The note with it: 209PJC1. On the procedure: as §1, §2, §3
In test [7] the test system is Pseudomonas capacia M-0501. Particulars: M0501. On the procedure: as §1, §2, §3
In test [8] the test system is Proteus vulgaris OX19. Here is the method:
as §1, §2, §3

In test [9] the test system is Staphylococcus aureus Smiths-424. Particulars: SMITHS424. Here is the method: as §1, §2, §3
The subject of test [10] is Klebsiella pneumoniae GN69. On the procedure: as §1, §2, §3
For test [11], the system named is Proteus morganii 1510 (CSase). Particulars: Morganella morganii. On the procedure: as §1, §2, §3
For test [12], the system named is Serratia marcescens No. 1. On the procedure:
as §1, §2, §3

Test [13] deals with Escherichia coli GN206. On the procedure:
as §1, §2, §3

For test [14], the system named is Pseudomonas aeruginosa E-2. Particulars: E2. On the procedure:
as §1, §2, §3

Test [15] concerns Streptococcus faecalis ATCC6633. The note with it: Enterococcus faecalis. On the procedure:
as §1, §2, §3

Test [16] has as its system Pseudomonas maltophilia 602. The note with it: Stenotrophomonas maltophilia. On the procedure:
as §1, §2, §3

Take `COc1ccc(-c2ccc(C(=O)N[C@@H](C(=O)N[C@@H]3C(=O)N4[C@@H]3SC(C)(C)[C@@H]4C(=O)O)c3ccc(O)cc3)c(=O)[nH]2)cc1OC` [Example 1, sodium salt of 6-(3,4-dimethoxyphenyl)-1,2-dihydro-2-oxonicotinylamoxycillin]: the MIC in [1] was found to be 12.5 µg/mL; in test [2] it was 0.78 µg/mL; in test [3], 12.5 µg/mL; in test [4] it was 6.25 µg/mL; in [5] it was 6.25 µg/mL; in test [6], 0.39 µg/mL. In addition, the minimal inhibitory concentration (MIC) in [7] was 12.5 µg/mL; in test [8], 0.39 µg/mL; in [9] it was 0.39 µg/mL; in test [10], 25 µg/mL; in test [11], 100 µg/mL; in test [12] it was 0.78 µg/mL. Besides, the MIC in test [13] was 3.13 µg/mL; in test [14] it was 3.13 µg/mL; in test [15], 3.13 µg/mL; in [16], 12.5 µg/mL.
For `CC1(C)S[C@@H]2[C@H](NC(=O)[C@H](NC(=O)c3cnc4cccnc4c3O)c3ccccc3)C(=O)N2[C@H]1C(=O)O` [PC-904, reference compound], the minimal inhibitory concentration (MIC) in test [1] turned out to be 50 µg/mL (≈ 95.9 µM); in [2], 0.78 µg/mL (≈ 1.5 µM); in test [3] it was 25 µg/mL (≈ 47.9 µM); in test [4], 25 µg/mL (≈ 47.9 µM); in [5], 12.5 µg/mL (≈ 24 µM); in test [6], 0.39 µg/mL (≈ 0.748 µM). The MIC is 12.5 µg/mL (≈ 24 µM) in test [7]; 0.39 µg/mL (≈ 0.748 µM) in [8]; 0.39 µg/mL (≈ 0.748 µM) in test [9]; 50 µg/mL (≈ 95.9 µM) in test [10]; 100 µg/mL (≈ 192 µM) in test [11]; 1.56 µg/mL (≈ 2.99 µM) in [12]. Moreover, the MIC in test [13] is 25 µg/mL (≈ 47.9 µM); in test [14], 1.56 µg/mL (≈ 2.99 µM); in test [15] it was 6.25 µg/mL (≈ 12 µM); in [16], 50 µg/mL (≈ 95.9 µM).
For `COc1ccc(COc2ccc(-c3ccc(C(=O)N[C@@H](C(=O)N[C@@H]4C(=O)N5[C@@H]4SC(C)(C)[C@@H]5C(=O)O)c4ccc(O)cc4)c(=O)[nH]3)cc2OC)cc1OC` [Example 3, 6-[4-(3,4-dimethoxybenzyloxy)-3-methoxyphenyl]-1,2-dihydro-2-oxonicotinyl amoxycillin], the MIC in test [1] came to 6.25 µg/mL (≈ 8.24 µM); in [2], 3.13 µg/mL (≈ 4.12 µM); in test [3], 3.13 µg/mL (≈ 4.12 µM); in test [4], 6.25 µg/mL (≈ 8.24 µM); in test [5], 1.56 µg/mL (≈ 2.06 µM); in test [6], 0.39 µg/mL (≈ 0.514 µM). Besides, the minimum inhibitory concentration (MIC) in test [7] was 3.13 µg/mL (≈ 4.12 µM); in test [8] it was 0.39 µg/mL (≈ 0.514 µM); in test [9] it was 0.2 µg/mL (≈ 0.264 µM); in test [10] it was 25 µg/mL (≈ 32.9 µM); in test [11], 50 µg/mL (≈ 65.9 µM); in test [12] it was 1.56 µg/mL (≈ 2.06 µM). The MIC turned out to be 1.56 µg/mL (≈ 2.06 µM) in [13], 6.25 µg/mL (≈ 8.24 µM) in test [14], 3.13 µg/mL (≈ 4.12 µM) in test [15] and 25 µg/mL (≈ 32.9 µM) in test [16].
